In patent publication US12398097B2, “WDR5-MYC inhibitors” (Vanderbilt University, priority 2019, dated 2025):

Biological target: WDR5 (Homo sapiens, UniProt P61964)
Experiment: Competition-based fluorescence polarization anisotropy assay
Settings: binding to WDR5; displacement of FITC-labeled small molecule probe (analogous to Example J2 or HCH-25) or peptide probe FITC-AHx-SEEEIDVVSV; pH 6.0; Ki converted from IC50
Method in brief: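 Competition fluorescence polarization anisotropy binding to WDR5 using a FITC-labeled peptide probe or a fluorescently labeled small-molecule probe. Buffer: 200 mM phosphate, 300 mM NaCl, 0.5 mM TCEP, 0.1% Chaps, pH 6.0. Displacement data were converted to Ki.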

Ki	SMILES
1.04 µM	COC[C@@H]1CCCN1C(=O)c1cc(OC(F)(F)F)cc(NS(=O)(=O)c2cc(Br)ccc2O)c1O [Example J171, (S)-5-Bromo-2-hydroxy-N-(2-hydroxy-3-(2-(methoxymethyl)pyrrolidine-1-carbonyl)-5-(trifluoromethoxy)phenyl)benzenesulfonamide]
2.38 µM	COc1ccc(Br)cc1S(=O)(=O)Nc1cc(-c2ccccc2)cc(C(=O)O)c1O [Example J183, 5-((5-Bromo-2-methoxyphenyl)sulfonamido)-4-hydroxy-[1,1′-biphenyl]-3-carboxylic acid]
0.92 µM	CNC(=O)c1c(O)c(NS(=O)(=O)c2cc(Br)cc(F)c2O)cc(C2CC2)c1F [Example J150, 3-((5-Bromo-3-fluoro-2-hydroxyphenyl)sulfonamido)-5-cyclopropyl-6-fluoro-2-hydroxy-N-methylbenzamide]
1.42 µM	O=C1CCCN1c1cc(Cl)cc(NS(=O)(=O)c2cc(Br)cc(Cl)c2O)c1 [NE13, 5-Bromo-3-chloro-N-(3-chloro-5-(2-oxopyrrolidin-1-yl)phenyl)-2-hydroxybenzenesulfonamide]
0.46 µM	CCc1cc(Br)cc(S(=O)(=O)Nc2cc(Cl)cc(C(=O)NC3COC3)c2O)c1O [HCH-58, 3-((5-Bromo-3-ethyl-2-hydroxyphenyl)sulfonamido)-5-chloro-2-hydroxy-N-(oxetan-3-yl)benzamide]
5.17 µM	CC(C)[C@@H](C)Nc1ccc(Br)cc1S(=O)(=O)Nc1cc(C2CC2)cc(C(=O)O)c1O [Example J75, (R)-3-((5-Bromo-2-((3-methylbutan-2-yl)amino)phenyl)sulfonamido)-5-cyclopropyl-2-hydroxybenzoic acid]
0.35 µM	O=C(O)c1c(O)c(NS(=O)(=O)c2cc(Br)cc(Cl)c2O)cc(C2CC2)c1F [Example J118, 3-((5-Bromo-3-chloro-2-hydroxyphenyl)sulfonamido)-5-cyclopropyl-6-fluoro-2-hydroxybenzoic acid]
1.09 µM	CN(C)CCNC(=O)c1cc(C2(C#N)CCC2)cc(NS(=O)(=O)c2cc(Br)ccc2O)c1O [Example J226, 3-((5-Bromo-2-hydroxyphenyl)sulfonamido)-5-(1-cyanocyclobutyl)-N-(2-(dimethylamino)ethyl)-2-hydroxybenzamide]
0.06 µM	CCc1cc(NS(=O)(=O)c2cc(Br)ccc2O)c(O)c(C(=O)O)c1 [HCH-18, 3-((5-Bromo-2-hydroxyphenyl)sulfonamido)-5-ethyl-2-hydroxybenzoic acid]
1.07 µM	O=C(NCCN1CCOCC1)c1cc(C2CC2)cc(NS(=O)(=O)c2cc(Br)ccc2O)c1O [Example J84, 3-((5-Bromo-2-hydroxyphenyl)sulfonamido)-5-cyclopropyl-2-hydroxy-N-(2-morpholinoethyl)benzamide]
1.08 µM	CNC(=O)c1cc(C(C)(C)C)cc(NS(=O)(=O)c2cc(Br)ccc2O)c1O [Example J202, 3-((5-Bromo-2-hydroxyphenyl)sulfonamido)-5-(tert-butyl)-2-hydroxy-N-methylbenzamide]
27.8 µM	COC1CCN(C(=O)c2cc(C3(C#N)CCC3)cc(NS(=O)(=O)c3cc(Br)ccc3O)c2O)C1 (stereo not drawn) [Example J221, 5-Bromo-N-(5-(1-cyanocyclobutyl)-2-hydroxy-3-(3-methoxypyrrolidine-1-carbonyl)phenyl)-2-hydroxybenzenesulfonamide]
0.05 µM	N#CC1(c2cc(NS(=O)(=O)c3cc(Br)cc4c3OCC4)c(O)c(C(=O)O)c2)CCC1 [SN-10, 3-((5-bromo-2,3-dihydrobenzofuran)-7-sulfonamido)-5-(1-cyanocyclobutyl)-2-hydroxybenzoic acid]
0.15 µM	CS(=O)(=O)c1cc(NS(=O)(=O)c2cc(Br)cc(Cl)c2O)cc(C2(C#N)CCC2)c1 [Example S72, 5-Bromo-3-chloro-N-(3-(1-cyanocyclobutyl)-5-(methylsulfonyl)phenyl)-2-hydroxybenzenesulfonamide]
1.26 µM	CNC(=O)c1cc(Cl)cc(NS(=O)(=O)c2cc(Br)ccc2OC)c1O [Example J44, 3-((5-Bromo-2-methoxyphenyl)sulfonamido)-5-chloro-2-hydroxy-N-methylbenzamide]
0.39 µM	CNC(=O)c1cc(C2(C#N)CCC2)cc(NS(=O)(=O)c2cc(Br)ccc2O)c1O [Example J208, 3-((5-Bromo-2-hydroxyphenyl)sulfonamido)-5-(1-cyanocyclobutyl)-2-hydroxy-N-methylbenzamide]
0.36 µM	O=C(NC1CCOC1)c1cc(OC(F)(F)F)cc(NS(=O)(=O)c2cc(Br)ccc2O)c1O (stereo not drawn) [Example J167, 3-((5-Bromo-2-hydroxyphenyl)sulfonamido)-2-hydroxy-N-(tetrahydrofuran-3-yl)-5-(trifluoromethoxy)benzamide]
69.2 µM	COc1ccc(Br)cc1S(=O)(=O)Nc1cc(C(=O)O)cc(C2=CCOCC2)c1 [Example J193, 3-((5-Bromo-2-methoxyphenyl)sulfonamido)-5-(3,6-dihydro-2H-pyran-4-yl)benzoic acid]

Ki	SMILES
0.33 µM	NC(=O)c1cc(OC(F)(F)F)cc(NS(=O)(=O)c2cc(Br)cc(Cl)c2O)c1O [HCH-62, 3-((5-Bromo-3-chloro-2-hydroxyphenyl)sulfonamido)-2-hydroxy-5-(trifluoromethoxy)benzamide]
3.99 µM	COC[C@H]1CCCN1c1ccc(Br)cc1S(=O)(=O)Nc1cc(C2CC2)cc(C(=O)O)c1O [Example J78, (R)-3-((5-Bromo-2-(2-(methoxymethyl)pyrrolidin-1-yl)phenyl)sulfonamido)-5-cyclopropyl-2-hydroxybenzoic acid]
0.14 µM	O=C(NC1COC1)c1cc(OC(F)(F)F)cc(NS(=O)(=O)c2cc(Br)cc(Cl)c2O)c1O [HCH-54, 3-((5-Bromo-3-chloro-2-hydroxyphenyl)sulfonamido)-2-hydroxy-N-(oxetan-3-yl)-5-(trifluoromethoxy)benzamide]
0.6 µM	COCCCNC(=O)c1cc(C2CC2)cc(NS(=O)(=O)c2cc(Br)ccc2O)c1O [Example J88, 3-((5-Bromo-2-hydroxyphenyl)sulfonamido)-5-cyclopropyl-2-hydroxy-N-(3-methoxypropyl)benzamide]
0.11 µM	CCCc1cc(Br)cc(S(=O)(=O)Nc2cc(OC(F)(F)F)cc(C(=O)O)c2O)c1O [HCH-16, 3-((5-Bromo-2-hydroxy-3-propylphenyl)sulfonamido)-2-hydroxy-5-(trifluoromethoxy)benzoic acid]
0.13 µM	O=C(O)c1cc(C2CC2)cc(NS(=O)(=O)c2cc(Br)cc(Cl)c2O)c1O [Example J70, 3-((5-Bromo-3-chloro-2-hydroxyphenyl)sulfonamido)-5-cyclopropyl-2-hydroxybenzoic acid]
0.2 µM	CCc1cc(NS(=O)(=O)c2cc(Br)cc(CC)c2O)c(O)c(C(=O)O)c1 [HCH-12, 3-((5-bromo-3-ethyl-2-hydroxyphenyl)sulfonamido)-5-ethyl-2-hydroxybenzoic acid]
0.36 µM	CC(C)[S+]([O-])c1cc(Cl)cc(NS(=O)(=O)c2cc(Br)ccc2O)c1O (stereo not drawn) [Example S23.3, 5-Bromo-N-(5-chloro-2-hydroxy-3-(isopropylsulfinyl)phenyl)-2-hydroxybenzenesulfonamide]
0.78 µM	CC(C)N(CCSc1cc(Cl)cc(NS(=O)(=O)c2cc(Br)cc(Cl)c2O)c1)C(C)C [Example S36, 5-Bromo-3-chloro-N-(3-chloro-5-((2-(diisopropylamino)ethyl)thio)phenyl)-2-hydroxybenzenesulfonamide]
7.74 µM	COCCN(C)C(=O)c1cc(Cl)cc(NS(=O)(=O)c2cc(Br)ccc2OC)c1O [Example J58, 3-((5-Bromo-2-methoxyphenyl)sulfonamido)-5-chloro-2-hydroxy-N-(2-methoxyethyl)-N-methylbenzamide]
20.7 µM	CNS(=O)(=O)c1cc(Cl)cc(NS(=O)(=O)c2cc(Br)cc(Cl)c2O)c1O [Example S28, 5-bromo-3-chloro-N-(5-chloro-2-hydroxy-3-(N-methylsulfamoyl)phenyl)-2-hydroxybenzenesulfonamide]
0.06 µM	O=C(O)c1cc(Cl)cc(NS(=O)(=O)c2cc(Br)cc(Cl)c2O)c1O [Example J4, 3-((5-Bromo-3-chloro-2-hydroxyphenyl)sulfonamido)-5-chloro-2-hydroxybenzoic acid]
4.51 µM	O=C(N[C@H]1CCOC1)c1c(O)c(NS(=O)(=O)c2cc(Br)ccc2O)cc(C2CC2)c1F [Example J133, (S)-3-((5-Bromo-2-hydroxyphenyl)sulfonamido)-5-cyclopropyl-6-fluoro-2-hydroxy-N-(tetrahydrofuran-3-yl)benzamide]
0.82 µM	O=S(=O)(Nc1cc(C2CC2)ccc1O)c1cc(Br)ccc1O [JDM-10-108A, 5-Bromo-N-(5-cyclopropyl-2-hydroxyphenyl)-2-hydroxybenzenesulfonamide]
0.41 µM	N#CC1(c2cc(NS(=O)(=O)c3cc(Br)ccc3O)c(O)c(C(=O)NCc3cc[nH]c(=O)c3)c2)CCC1 [Example J222, 3-((5-Bromo-2-hydroxyphenyl)sulfonamido)-5-(1-cyanocyclobutyl)-2-hydroxy-N-((2-oxo-1,2-dihydropyridin-4-yl)methyl)benzamide]
0.06 µM	O=C(O)c1cc(OC(F)(F)F)cc(NS(=O)(=O)c2cc(Br)ccc2O)c1O [Example J160, 3-((5-Bromo-2-hydroxyphenyl)sulfonamido)-2-hydroxy-5-(trifluoromethoxy)benzoic acid]
0.02 µM	CNC(=O)c1cc(S(F)(F)(F)(F)F)cc(NS(=O)(=O)c2cc(Br)ccc2O)c1O [Example S66, 3-((5-Bromo-2-hydroxyphenyl)sulfonamido)-2-hydroxy-N-methyl-5-(pentafluoro-λ^6-sulfaneyl)benzamide]
21.9 µM	O=C(O)c1cc(Cl)cc(NS(=O)(=O)c2cc(Cl)c(F)cc2O)c1O [Example J10, 5-Chloro-3-((5-chloro-4-fluoro-2-hydroxyphenyl)sulfonamido)-2-hydroxybenzoic acid]
